Measurements from US20230277491A1, “PHARMACEUTICAL COMBINATION COMPRISING GLYCOLIC ACID AND L-ALANINE” (priority 2020, published 2023).

Experiments:
[1] = test system: HeLa cells treated with siRNA against PARK-7/DJ-1; assay: Calcium imaging on HeLa cells during mitosis after PARK-7/DJ-1 down-regulation; type: cell-based; conditions: PARK-7/DJ-1 down-regulated HeLa cells, 5 mM, FIG. 17
Procedure: HeLa cells were loaded with Fluo-4 AM, a dye used to measure calcium concentration in living cells, as described by the manufacturer and recorded for 4 hours. Graphics show the variations in intracellular calcium concentration during mitosis in WT and cells treated with siRNA against PARK-7/DJ-1 to down-regulate this gene.
HeLa-Kyoto cells stably expressing histone H2B-mCherry and mouse DJ-1 were used. Cells were maintained in DMEM supplemented with 10% fetal bovine serum (FBS), 2 mM GlutaMAX, 100 unit/ml penicillin, 100 μg/ml streptomycin. For esiRNA treatment, cells were plated at a density of 15.000 cells/well in an ibidi 8 well chamber (Cat. no 80826, ibidi, Germany, EU), transfected with different esiRNAs (RLUC as empty vector, hPARK-7 and hKIF11 as positive control) (all esiRNAs were obtained from Eupheria, Germany, EU), and left for 72 hours before performing calcium imaging. esiRNA transfection was performed as follows. esiRNA was diluted in distilled water to a concentration of 20 ng/μl. For each well, two solutions were made: 1. […]
We observed that the Fluo-4 AM dye started to leak out of the cells into the medium after 1.5 hours of imaging. […] Images were analyzed using FIJI Image Analysis Freeware (https://fiji.sc). MFI of the Fluo-4 AM signal within the cell was determined using manually selected ROIs covering the whole cell area for each time-point. […]

[2] = test system: HeLa cells; assay: Intracellular calcium, Fluo4-AM loaded HeLa cells, fluorescent plate reader; type: cell-based; conditions: FIG. 12
Description: HeLa cells were loaded with Fluo4-AM and fluorescence was monitored with the help of a fluorescent plate reader. Values are normalized to the initial fluorescent value.

[3] = test system: djr1.1/djr1.2 and glod-4 KO C. elegans; assay: Embryonic lethality in C. elegans (percentage of hatched eggs); type: in vivo; conditions: worms fed with substance, FIG. 18
Procedure: All C. elegans strains were maintained on NGM agar plates seeded with Escherichia coli NA22 at 15° C.

[4] = test system: dopaminergic neurons; conditions: cited from earlier work
[5] = test system: DJ-1 RNAi depleted HeLa cells; conditions: cited from earlier work
[6] = human, in vivo
Description: Potential side effects were closely monitored.

[7] = test system: dopaminergic neurons; assay: Survival of dopaminergic neurons with paraquat 25 μM challenge (Example 1, FIG. 1); type: cell-based, mouse
Procedure: (§1) Dopaminergic neurons were isolated and plated at a concentration of 1.000.000 cells/ml (100 μl/well) in a 96 well plate and cultured in medium with one or more of the various factors indicated, as described in the examples below. The survival of dopaminergic neurons in the presence and absence of various agents of the invention, either with or without paraquat challenge, is shown by the number of TH positive neurons normalized to the control treatment.
Dopaminergic neurons were isolated and plated at a concentration of 1.000.000 cells/ml (100 μl/well) in a 96 well plate. After 3-4 hours incubation at 37° C., 20 μl of medium was removed from each well. (VF=80 μl). Changes in medium and start point of the treatment were done in the following day in vitro (DIV). The following protocol was employed in order to assess the survival of dopaminergic neurons in the presence and absence of various agents of the invention combination, either with or without paraquat challenge. • DIV.1: Change half of medium N2 (40 μl) with fresh medium N2. • DIV.3: Change half of the medium and start with medium (control) or with medium A containing LA (different concentrations) and/or GA (normally 5 mM or 10 mM). Medium A is N2 medium but without FBS and N2-Supplement. • DIV.5: Second round of control or treatment with LA and/or GA. Half of the medium (40 μl) was replaced by fresh medium A with the different agents. • DIV.7: Paraquat 25 μM treatment starts with or without GA and L-alanine. Half of the medium (40 μl) was replaced by fresh medium A with the different treatment combinations or without (control). • DIV.9: Second day of treatment with Paraquat (PQ) 25 μM in addition to the other substances (LA and GA). • DIV.10: Fixation 2% of PFA during 20 min at 37° C. or overnight at 4° C.
Primary mesencephalic neuronal cell cultures were prepared as previously described. Briefly, E14.5 embryos were obtained from C57JBL6 pregnant mice after cervical dislocation. Brain mesencephali were dissected under the microscope and digested with Trypsin-EDTA 0.12% (Life Technologies, USA) for 7 min. The trypsin reaction was then stopped by adding basic medium (BM), containing Neurobasal A medium (Gibco, USA), 1 mg/mL Pen/Strep, 10% FCS, and […] L-Glutamine, and cells were mechanically dissociated using a fire-polished Pasteur pipette. Medium was fully replaced after 5 min, centrifugation at 1200 rpm, aspiring the supernatant and adding 8 mL of fresh BM to the pellet. Concentration of cells in the medium was estimated using a Neubauer chamber and a 100 μL of medium containing 10^6 cells/mL plated per well in a 96-well plate (Greiner Sensoplate, Germany, EU). Then a 20 μL of medium was removed from the well and 24 h later, ⅓ of the media was replaced with fresh BM. […]

[8] = test system: dopaminergic neurons; assay: Survival of dopaminergic neurons with paraquat 12.5 μM challenge (Example 5, FIGS. 19, 20); type: cell-based, mouse
Procedure: as §1
Dopaminergic neurons were isolated and plated at a concentration of 1.000.000 cells/ml (100 μl/well) in a 96 well plate. After 3-4 hours incubation at 37° C., 20 μl of medium was removed from each well. (VF=80 μl). Changes in medium and start point of the treatment were on the following day in vitro (DIV). The following protocol was employed to assess the survival of dopaminergic neurons in the presence and absence of various agents of the inventive combination, either with or without paraquat challenge. • DIV.1: Change half of medium N2 (40 μl) with fresh medium N2. • DIV.3: Change half of the medium and start with medium (control) or with medium A containing PB (0.15 mM) and TUDCA (0.5 mM), or with Medium A containing GA (normally 1 mM, 3 mM, or 10 mM) or with Medium A containing GA (1 mM or 3 mM) and PB (0.15 mM) or with Medium A containing GA (5 mM) and TUDCA (0.5 mM) or with Medium A containing PB (0.15 mM). Medium A is N2 medium but without FBS and N2-Supplement. • DIV.5: Second round of control or treatment with different treatments. Half of the medium (40 μl) was replaced by fresh medium A with the different agents. • DIV.7: Paraquat 12.5 μM treatment starts alone or in combination with the treatments explained above. Half of the medium (40 μl) was replaced by fresh medium A with the different treatment combinations or without (control). • DIV.9: Second day of treatment with Paraquat (PQ) 12.5 μM in addition to the other treatments as explained above. • DIV.11: Fixation 2% of PFA during 20 min at 37° C. or overnight at 4° C.
The effect of the different treatments on dopaminergic neurons survival upon exposure to paraquat was assessed through of TH+ neurons after treatment. Briefly, neurons were fixed using 2% paraformaldehyde for immunocytochemical analysis after treatment. Dopaminergic TH^+ neurons per well were identified and counted using an inverted fluorescence microscope (Olympus) under a 20× objective.

[9] = estimated; cited from earlier work
[10] = 5 g tablet or powder by mouth; cited from earlier work

Compound: C[C@@H](O)C(=O)O [DL, D-(−)-lactic acid]
- calcium influx during mitosis [1]: able to rescue this phenotype
- intracellular calcium (Fluo4-AM fluorescence normalized to initial value) [2]: reduce intracellular calcium
- embryonic lethality (percentage of hatched eggs) [3]: rescue of embryonic lethality
- survival of dopaminergic neurons [4]: rescued the survival of dopaminergic neurons
- mitochondrial potential [5]: maintain or rescue mitochondrial potential

Compound: C[C@H](N)C(=O)O [LA, L-Alanine]
- prevention of kidney damage or stones, renal or liver disfunction [6]: sufficient to prevent any kidney damage or stones
- side effects / function of the kidney or liver [6]: avoid any unwanted side effects or reductions in function of the kidney or liver
- survival of dopaminergic neurons (rescue) ([7]; 0.01 mM LA alone with PQ 25 μM): no rescue

Compound: O=C(O)CCCc1ccccc1 [PB, 4-Phenylbutyric acid, reference compound]
- number of TH positive neurons normalized to the control treatment ([8]; PQ 12.5 μM + 0.15 mM PB, FIG. 19): 0.72

Compound: C[n+]1ccc(-c2cc[n+](C)cc2)cc1 [PQ, Paraquat, reference compound]
- number of TH positive neurons normalized to the control treatment ([8]; PQ 12.5 μM alone, FIG. 19): 0.58
- number of TH positive neurons normalized to the control treatment ([8]; PQ 12.5 μM alone, FIG. 20): 0.44
- survival of dopaminergic neurons (number of TH positive neurons normalized to the control treatment) ([7]; PQ 25 μM alone): severe reduction in neuron survival

Compound: OCCOCCO [diethylene glycol]
- minimum toxic dose [9]: 0.14 mg glycolic acid per kg of body weight

Compound: sodium phenylbutyrate
- time to metabolism into phenylacetate [10]: within half an hour
- time to peak concentration in the bloodstream [10]: within an hour
- time until detected in the blood [10]: ≤ 15 min
